How the values were obtained:
human FAK = human FAK (Homo sapiens (Human), UniProt Q05397); conditions: read-out: FAK IC50
human JAK2 = human JAK2 (Homo sapiens (Human), UniProt O60674); conditions: read-out: JAK2 IC50
human JAK2, sequence (O60674 815-1132): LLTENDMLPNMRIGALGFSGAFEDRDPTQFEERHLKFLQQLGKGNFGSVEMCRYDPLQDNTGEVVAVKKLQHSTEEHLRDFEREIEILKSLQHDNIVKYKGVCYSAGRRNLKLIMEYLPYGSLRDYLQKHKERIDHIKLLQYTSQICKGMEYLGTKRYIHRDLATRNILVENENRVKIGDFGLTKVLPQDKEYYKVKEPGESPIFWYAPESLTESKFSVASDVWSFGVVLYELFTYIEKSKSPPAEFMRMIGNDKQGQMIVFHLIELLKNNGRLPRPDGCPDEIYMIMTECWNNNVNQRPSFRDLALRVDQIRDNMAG

human FAK, sequence (Q05397 whole entry): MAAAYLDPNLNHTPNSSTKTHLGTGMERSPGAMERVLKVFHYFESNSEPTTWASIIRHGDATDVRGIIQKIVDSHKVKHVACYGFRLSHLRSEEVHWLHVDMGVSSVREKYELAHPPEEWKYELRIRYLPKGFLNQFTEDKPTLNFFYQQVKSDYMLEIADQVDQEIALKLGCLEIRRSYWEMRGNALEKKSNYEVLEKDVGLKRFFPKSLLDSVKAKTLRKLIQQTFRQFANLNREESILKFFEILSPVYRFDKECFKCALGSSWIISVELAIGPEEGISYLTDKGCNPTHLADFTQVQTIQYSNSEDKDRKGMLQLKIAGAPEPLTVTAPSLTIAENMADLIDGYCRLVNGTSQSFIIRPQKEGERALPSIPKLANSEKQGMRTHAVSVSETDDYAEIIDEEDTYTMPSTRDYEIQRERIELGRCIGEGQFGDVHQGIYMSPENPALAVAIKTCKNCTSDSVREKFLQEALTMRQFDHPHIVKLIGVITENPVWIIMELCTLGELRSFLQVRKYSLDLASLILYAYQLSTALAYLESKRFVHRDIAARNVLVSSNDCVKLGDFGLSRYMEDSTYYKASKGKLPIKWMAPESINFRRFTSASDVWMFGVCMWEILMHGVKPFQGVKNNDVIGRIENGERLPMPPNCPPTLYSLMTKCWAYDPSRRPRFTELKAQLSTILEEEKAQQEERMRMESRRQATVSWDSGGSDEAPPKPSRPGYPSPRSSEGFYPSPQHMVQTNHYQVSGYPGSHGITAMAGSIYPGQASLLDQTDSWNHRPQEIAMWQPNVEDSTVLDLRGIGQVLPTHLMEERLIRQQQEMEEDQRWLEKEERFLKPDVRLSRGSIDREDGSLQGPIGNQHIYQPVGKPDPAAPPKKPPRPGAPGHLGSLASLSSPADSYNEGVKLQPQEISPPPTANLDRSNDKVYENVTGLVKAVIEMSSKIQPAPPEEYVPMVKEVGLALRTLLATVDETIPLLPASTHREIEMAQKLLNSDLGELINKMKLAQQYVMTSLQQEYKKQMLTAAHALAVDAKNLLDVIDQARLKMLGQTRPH

Row | SMILES | IC50 (human FAK) | IC50 (human JAK2)
1 | CS(=O)(=O)c1ccc(-c2cccn3nc(Nc4ccc5c(c4)CCC(N4CCOCC4)CC5)nc23)cc1 (stereo not drawn) [Example 145, [8-(4-Methanesulfonyl-phenyl)-[1,2,4]triazolo[1,5-a]pyridin-2-yl]-(7-morpholin-4-yl-6,7,8,9-tetrahydro-5H-benzocyclohepten-2-yl)-amine] | 671 nM | 1.55 nM
2 | CN(c1ncccc1CNc1cccn2nc(Nc3cccc(S(C)(=O)=O)c3)nc12)S(C)(=O)=O [Example 135, N-(3-{[2-(3-Methanesulfonyl-phenylamino)-[1,2,4]triazolo[1,5-a]pyridin-8-ylamino]-methyl}-pyridin-2-yl)-N-methyl-methanesulfonamide] | 215 nM | 77.8 nM
3 | Cc1ccc(-n2cc(-c3cccn4nc(Nc5ccc(C6CCNCC6)cc5)nc34)cn2)cc1 [Example 289, (4-Piperidin-4-yl-phenyl)-[8-(1-p-tolyl-1H-pyrazol-4-yl)-[1,2,4]triazolo[1,5-a]pyridine-2-yl]-amine] | 2420 nM | 4.04 nM
4 | CN1CCN(c2cccc(Nc3nc4c(OCc5cccc(Cl)c5)cccn4n3)c2)CC1 [Example 261, [8-(3-Chloro-benzyloxy)-[1,2,4]triazolo[1,5-a]pyridin-2-yl]-[3-(4-methyl-piperazin-1-yl)-phenyl]-amine] | 1590 nM | 99.5 nM
5 | CN1CCN(c2cccc(Nc3nc4c(-c5ccc(N(C)S(C)(=O)=O)cc5)cccn4n3)c2)CC1 [Example 63, N-Methyl-N-(4-{2-[3-(4-methyl-piperazin-1-yl)-phenylamino]-[1,2,4]triazolo[1,5-a]pyridin-8-yl}-phenyl)-methanesulfonamide] | 1350 nM | 0.6 nM
6 | CC(C)S(=O)(=O)c1ccc(-c2cccn3nc(Nc4cccc(N5CCN(C)CC5)c4)nc23)cc1 [Example 53, [3-(4-Methyl-piperazin-1-yl)-phenyl]-{8-[4-(propane-2-sulfonyl)-phenyl]-[1,2,4]triazolo[1,5-a]pyridin-2-yl}-amine] | 865 nM | 1.3 nM
7 | CN(Cc1ccccc1Nc1cccn2nc(Nc3ccc(OCCN4CCCC4)cc3)nc12)S(C)(=O)=O [Example 173, N-Methyl-N-(2-{2-[4-(2-pyrrolidin-1-yl-ethoxy)-phenylamino]-[1,2,4]triazolo[1,5-a]pyridin-8-ylamino}-benzyl)-methanesulfonamide] | 2000 nM | 143 nM
8 | CC(C)(O)CN1CCN(c2cccc(Nc3nc4c(-c5ccc(S(C)(=O)=O)cc5)cccn4n3)c2)CC1 [Example 144, 1-(4-{3-[8-(4-Methanesulfonyl-phenyl)-[1,2,4]triazolo[1,5-a]pyridin-2-ylamino]-phenyl}-piperazin-1-yl)-2-methyl-propan-2-ol] | 2050 nM | 2.61 nM
9 | CN1CCN(c2ccc(Nc3nc4c(OCc5ccccc5C#N)cccn4n3)cc2)CC1 [Example 262, 2-{2-[4-(4-Methyl-piperazin-1-yl)-phenylamino]-[1,2,4]triazolo[1,5-a]pyridin-8-yloxymethyl}-benzonitrile] | 2560 nM | 15.1 nM
10 | CN1CCN(c2cccc(Nc3nc4c(NCc5ccc(F)cc5)cccn4n3)c2)CC1 [Example 396, N(8)-(4-Fluoro-benzyl)-N(2)-[3-(4-methyl-piperazin-1-yl)-phenyl]-[1,2,4]triazolo[1,5-a]pyridine-2,8-diamine] | 10000 nM | 1430 nM
11 | Cc1ccc(OCC(C)C)c(-c2cccn3nc(Nc4ccc5c(c4)CCNCC5)nc23)c1 [Example 305, [8-(2-Isobutoxy-5-methyl-phenyl]-[1,2,4]triazolo[1,5a]pyridine-2-yl]-(2,3,4,5-tetrahydro-benzo[d]azepin-7-yl)-amine] | 10000 nM | 3080 nM
12 | COc1cc(N2CCN(C)CC2)ccc1Nc1nc2c(NCc3cccnc3N(C)S(C)(=O)=O)cccn2n1 [Example 137, N-[3-({2-[2-Methoxy-4-(4-methyl-piperazin-1-yl)-phenylamino]-[1,2,4]triazolo[1,5-a]pyridin-8-ylamino}-methyl)-pyridin-2-yl]-N-methyl-methanesulfonamide] | 39.7 nM | 3000 nM
13 | COc1ccc(F)cc1-c1cccn2nc(Nc3ccc4c(c3)CCN(CC(=O)N(C)C)CC4)nc12 [Example 323, 2-{7-[8-(5-Fluoro-2-methoxy-phenyl)-[1,2,4]triazolo[1,5-a]pyridin-2-ylamino]-1,2,4,5-tetrahydro-3-benzazepin-3-yl}-N,N-dimethyl-acetamide] | 691 nM | 11.3 nM
14 | CN1CCN(c2cncc(Nc3nc4c(NCc5ccccc5N(C)S(C)(=O)=O)cccn4n3)n2)CC1 [Example 389, N-Methyl-N-(2-{[2-(4-methyl-3,4,5,6-tetrahydro-2H-[1,2′]bipyrazinyl-6′-ylamino)-[1,2,4]triazolo[1,5-a]pyridin-8-ylamino]-methyl}-phenyl)-methanesulfonamide] | 1060 nM | 6500 nM
15 | CN(C)C(=O)CN1CCc2ccc(Nc3nc4c(-c5cc(F)ccc5OCC(F)F)cccn4n3)cc2CC1 [Example 378, 2-(7-{8-[2-(2,2-Difluoro-ethoxy)-5-fluoro-phenyl]-[1,2,4]triazolo[1,5-a]pyridin-2-ylamino}-1,2,4,5-tetrahydro-3-benzazepin-3-yl)-N,N-dimethyl-acetamide] | 1250 nM | 520 nM
16 | CP(C)(=O)c1ccc(-c2cccn3nc(Nc4cccc(C5CCN(CCS(C)(=O)=O)CC5)c4)nc23)cc1 [Example 203, {8-[4-(Dimethyl-phosphinoyl)-phenyl]-[1,2,4]triazolo[1,5-a]pyridin-2-yl}-{3-[1-(2-methanesulfonyl-ethyl)-piperidin-4-yl]-phenyl}-amine] | 10000 nM | 166 nM
17 | CCOc1ccc(C(F)(F)F)cc1-c1cccn2nc(Nc3ccc4c(c3)CCNCC4)nc12 [Example 319] | 1310 nM | 137 nM
18 | COCc1ccccc1-c1cccc2nc(Nc3ccc4c(c3)CCN(CCS(C)(=O)=O)CC4)nn12 [Example 230, [3-(2-Methanesulfonyl-ethyl)-2,3,4,5-tetrahydro-1H-benzo[d]azepin-7-yl]-[5-(2-methoxymethyl-phenyl)-[1,2,4]triazolo[1,5-a]pyridin-2-yl]-amine] | 2000 nM | 27.6 nM
19 | COc1cnc(-c2cccn3nc(Nc4ccc(C5CCN(CC(=O)N(C)C)CC5)cc4)nc23)cn1 [Example 286, 2-(4-{4-[8-(5-Methoxy-pyrazin-2-yl)-[1,2,4]triazolo[1,5-a]pyridine-2-ylamino]-phenyl}-piperidin-1-yl)-N,N-dimethyl-acetamide] | 3000 nM | 134 nM
20 | COc1cccc(CNc2cccn3nc(Nc4cccnc4)nc23)c1 [Example 398, N(8)-(3-Methoxy-benzyl)-N(2)-pyridin-3-yl-[1,2,4]triazolo[1,5-a]pyridine-2,8-diamine] | 10000 nM | 816 nM
21 | CN(C)C(=O)CN1CCc2ccc(Nc3nc4c(-c5cccc6c5OC(F)(F)O6)cccn4n3)cc2CC1 [Example 248, 2-(7-[8-(2,2-difluoro-1,3-benzodioxol-4-yl)-[1,2,4]triazolo[1,5-a]pyridin-2-yl-amino]-1,2,4,5-tetrahydro-3-benzazepin-3-yl)-N—N-dimethyl-acetamide] | 1700 nM | 30.4 nM
22 | CN1Cc2ccc(Nc3nc4c(-c5ccc(S(C)(=O)=O)cc5)cccn4n3)cc2C1 [Example 168, [8-(4-Methanesulfonyl-phenyl)-[1,2,4]triazolo[1,5-a]pyridin-2-yl]-(2-methyl-2,3-dihydro-1H-isoindol-5-yl)-amine] | 816 nM | 0.73 nM
23 | CN1CCN(c2ccc(Nc3nc4c(Nc5ccccc5CN(C)S(C)(=O)=O)cccn4n3)cc2)CC1 [Example 171, N-Methyl-N-(2-{2-[4-(4-methyl-piperazin-1-yl)-phenylamino]-[1,2,4]triazolo[1,5-a]pyridin-8-ylamino}-benzyl)-methanesulfonamide] | 999 nM | 70.8 nM
24 | COc1ncc(C(F)(F)F)cc1-c1cccn2nc(Nc3ccc(C4CCNCC4)cc3)nc12 [Example 278, [8-(2-Methoxy-5-trifluoromethyl-pyridin-3-yl)-[1,2,4]triazolo[1,5-a]pyridine-2-yl]-(4-piperidine-4-yl-phenyl)-amine] | 10000 nM | 133 nM
25 | CN1CCN(c2ccc(Nc3nc4c(NCc5cccc(N(C)S(C)(=O)=O)c5)cccn4n3)cc2)CC1 [Example 169, N-Methyl-N-[3-({2-[4-(4-methyl-piperazin-1-yl)-phenylamino]-[1,2,4]triazolo[1,5-a]pyridin-8-ylamino}-methyl)-phenyl]-methanesulfonamide] | 6500 nM | 145 nM
26 | COc1ccc(Nc2nc3c(-c4cn[nH]c4)cccn3n2)cc1 [Example 39, (4-Methoxy-phenyl)-[8-(1H-pyrazol-4-yl)-[1,2,4]triazolo[1,5-a]pyridin-2-yl]-amine] | 2360 nM | 32.6 nM
27 | CN1CCN(c2ccc(Nc3nc4cccc(-c5cccc(S(C)(=O)=O)c5)n4n3)cc2)CC1 [Example 82, [5-(3-Methanesulfonyl-phenyl)-[1,2,4]triazolo[1,5-a]pyridin-2-yl]-[4-(4-methyl-piperazin-1-yl)-phenyl]-amine] | 584 nM | 9.2 nM
28 | CN(c1ncccc1CNc1cccn2nc(Nc3ccc(S(C)(=O)=O)cc3)nc12)S(C)(=O)=O [Example 134, N-(3-{[2-(4-Methanesulfonyl-phenylamino)-[1,2,4]triazolo[1,5-a]pyridin-8-ylamino]-methyl}-pyridin-2-yl)-N-methyl-methanesulfonamide] | 752 nM | 17.3 nM
29 | CN1CCN(c2ccc(Nc3nc4c(C#Cc5ccccc5N(C)S(C)(=O)=O)cccn4n3)cc2)CC1 [Example 189, N-Methyl-N-(2-{2-[4-(4-methyl-piperazin-1-yl)-phenylamino]-[1,2,4]triazolo[1,5-a]pyridin-8-ylethynyl}-phenyl)-methanesulfonamide] | 522 nM | 2.61 nM
30 | CCOc1ccccc1-c1cccn2nc(Nc3ccc4c(c3)CCN(CCS(C)(=O)=O)CC4)nc12 [Example 245] | 10000 nM | 70 nM
